# Data taken from patent US20190328665A1, “LIPOSOME COMPOSITIONS ENCAPSULATING MODIFIED CYCLODEXTRIN COMPLEXES AND USES THEREOF” (priority 2014, published 2019).
# Assays:
# [1] = mouse, in vivo, iv
# Description: Coumarin 334 was used as a drug surrogate to assess biodistribution and pharmacokinetics of cyclodextrin-encapsulated liposomes. […] Female athymic nu/nu mice bearing HCT116 subcutaneous xenografts were used in the study following a modified protocol described in Macdiarmid et al. (2007) Cancer Cell 11:431-445. When the tumor volumes reached 400-600 mm^3, 12 mice were treated intravenouslys (i.v.) with 200 μL cyclodextrin-encapsulated, liposomal (CYCL-)coumarin 334 (0.5 mg/mL). Posttreatment, four mice were euthanized at time points 2, 24, and 48 hours and tumor, spleen, liver, kidneys, heart, and lungs were excised and weighed. Blood was also collected, and plasma was separated and stored at 4° C. Except for plasma, each frozen tissue was homogenized and sonicated in 0.9% saline [3×volume (μL) of tissue mass (mg)]. […] The samples were centrifuged (6,000×g for 10 minutes) and the fluorescence in the supematants was measured by a CytoFluor II fluorescence multiwall plate reader (Applied Biosystems) using excitation 485 nm/emission 530 nm. […]
# To establish biodistribution and pharmacokinetics of the CYCL liposomes, liposomes loaded with coumarin 334 encapsulated in cyclodextrin VI were used to treat HCT116-bearing mice by intravenous (i.v.) injection. Samples from major tissues harvested at 2, 24, and 48 hours post-treatment were analyzed for their fluorescence.
# [2] = Remote loading of cyclodextrin-encapsulated dyes/drugs into liposomes; type: physicochemical
# Description: (§1) Equimolar quantities of the drug (0.1 mmol; 30-50 mg) and appropriate cyclodextrin ([…]; 110-185 mg) were dissolved separately in methanol (nearly saturated; ˜1-2 mL) and deionized water (˜10-20 mg/mL), respectively. The methanolic solution of the drug was then added dropwise into the cyclodextrin solution with agitation ensuring a uniform suspension. This suspension was then shaken at 55° C. for 36-48 hours using an Eppendorf Thermomixer R. The solution was filtered to remove particulate matter and flash frozen in a dry ice/acetone bath followed by lyophilization. The lyophilized complex was stored at −20° C. until further use.
# The lyophilized powder complex described above was pulverized and incubated with appropriate liposomal solutions (30-40 mg drug equivalent in 6 mL liposomal solution, to achieve loading ratios of 5-8 mg/mL concentrations) for 1 hour at 65° C. They were centrifuged at 1,000×g for 3 minutes to remove particulate matter and then dialyzed against 300 mM sucrose or commercial PBS solution (pH 7.4) overnight to remove material that had not been loaded into the liposomes. The size distributions of the liposomal formulations were characterized using the Malvem ZS90 instrument described above.
# The liposomal solution was dialyzed against PBS overnight.
# Organic dyes (coumarins) were used to determine whether the modified cyclodextrins could encapsulate and transport hydrophobic compounds across the liposome bilayer. […] It was determined that the most efficient and convenient way to encapsulate the coumarins was by freeze drying (Cao et al. (2005) Drug Dev. Industr. Pharm. 31:747-756; Badr-Eldin et al. (2008) Eur. J. Pharm. Biopharm. 70:819-827). […] Following overnight dialysis to remove unincorporated complexes, the liposomes were subsequently disrupted with methanol and the coumarin fluorescence measured. As shown by fluorescence spectroscopy, all cyclodextrin-dye complexes were incorporated into liposomes with high efficiency (>95%; FIG. 5). […]
# RKO xenografts = assay: RKO xenograft tumor growth; type: in vivo, nude mice; conditions: free drug 150 mg/kg
# Description: (§2) Tumor volume was recorded every 48 hours.
# With the free drug, severe acute toxicity was evident. In previous studies, the free drug was administered by oral gavage, because its solubility is not sufficient for intravenous dosing.
# [3] = Phase II / Phase 2 trials; cited from earlier work
# physchem = type: physicochemical; conditions: for solubility: water
# Description: as §1
# Organic dyes (coumarins) were used to determine whether the modified cyclodextrins could encapsulate and transport hydrophobic compounds across the liposome bilayer. Coumarins are very hydrophobic and a dramatic improvement in aqueous solubility was observed after they were encapsulated into 6′-mono-ethylenediamino-6′-deoxy-cyclodextrin (compound III). It was determined that the most efficient and convenient way to encapsulate the coumarins was by freeze drying (Cao et al. (2005) Drug Dev. Industr. Pharm. 31:747-756; Badr-Eldin et al. (2008) Eur. J. Pharm. Biopharm. 70:819-827). […] Once dissolved, the cyclodextrin-coumarin complexes were incubated with pre-formed liposomes exactly as described above, using a pH gradient to drive the compounds across the bilayer. Following overnight dialysis to remove unincorporated complexes, the liposomes were subsequently disrupted with methanol and the coumarin fluorescence measured. As shown by fluorescence spectroscopy, all cyclodextrin-dye complexes were incorporated into liposomes with high efficiency (>95%; FIG. 5). […] The incorporation of coumarin dyes into liposomes was easily discerned by the naked eye, as the coumarin-cyclodextrin liposomes were bright yellow, whereas control liposomes (made without cyclodextrins, for example) were colorless (FIGS. 5A-5C).
# HCT116 xenografts = assay: HCT116 subcutaneous xenograft tumor growth; type: in vivo, nude mice
# Description: as §2
# [4] = mouse, in vivo, iv, 100 mg/kg
# in vivo = conditions: female, athymic nu/nu, mouse, iv
# [5] = test system: HCT116 cells with genetically inactivated TP53 alleles; assay: Xenograft of HCT116 cells with genetically inactivated TP53 alleles; set-up: species or system nude mice; conditions: mouse, in vivo
# Description: as §2
# [6] = Passive loading of BI-2536 into liposomes; type: physicochemical
# Description: Method 1: Encapsulation of BI-2536 in the lipid layer. Hydrogenated egg phosphatidylcholine (Avanti Polar Lipids), cholesterol, and DSPE-PEG2000 (Avanti Polar Lipids) (molar ratios 50:45:5) were dissolved in chloroform (20 mL). Ten milligrams of BI-2536 (in 1 mL chloroform) was added and the solvent was evaporated to generate a thin film. One milliliter of PBS (pH 7.4) was added to hydrate the lipid layer, and the mixture was shaken at 50° C. for 2 hours as described above. The vesicle suspension was sonicated for 30 min and then extruded successively through 0.4-, 0.2-, and 0.1-μm polycarbonate membranes (Whatman; Nuclepore Track-Etched Membrane) at 50° C. to obtain the final liposomes with low polydispersity at the desired size. The liposomes were then dialyzed in PBS overnight to remove unentrapped drug. The average size and polydispersity index were then measured by dynamic light-scattering experiments on a Malvem Z90. Drug content was calculated by rupturing the liposomes with an equal volume of methanol and measuring the UV-vis absorbance on a NanoDrop 1000.
# Method 2: Hydration of the lipid layer with an aqueous formulation of BI-2536. Hydrogenated egg phosphatidylcholine (Avanti Polar Lipids), cholesterol, and DSPE-PEG2000 (Avanti Polar Lipids) (molar ratios 50:45:5) were dissolved in chloroform (20 mL), and the solvent was evaporated in vacuo to generate a thin film. One milliliter of aqueous BI-2536 (4 mg; pH 5.5) was added to hydrate the lipid layer, and the mixture was shaken at 50° C. for 2 hours as described above. The vesicle suspension was sonicated for 30 minutes and then extruded successively through 0.4-, 0.2-, and 0.1-μm polycarbonate membranes (Whatman; Nuclepore Track-Etched Membrane) at 50° C. to obtain the final liposomes with low polydispersity at the desired size. The liposomes were then dialyzed against PBS overnight to remove unentrapped drug. The average size and polydispersity index were then measured by dynamic light-scattering experiments on a Malvem Z90. Drug content was calculated by rupturing the liposomes with an equal volume of methanol and measuring the UV-vis absorbance on a NanoDrop 1000.
# The cyclodextrin-based loading method was also compared with the most common approaches to entrapping hydrophobic and insoluble agents in liposomes. First, direct entrapment of BI-2536 in the lipid bilayer was attempted. BI-2536 was co-evaporated with hydrogenated egg phosphatidylcholine-cholesterol-1,2-distearoyl-sn-glycero-3-phosphoethanolamine-N-[methoxy(polyethylene glycol)-2000 (DSPE-PEG 2000) to prepare a thin film, which was subsequently hydrated with 1 mL PBS and extruded through a 100-nm polycarbonate membrane at 700 psi to prepare small, unilamellar vesicles (average particle size (Zavg) 126 nm; PDI 0.09). Upon overnight dialysis against PBS to remove unentrapped drug, the drug-containing liposomes rapidly swelled (Zavg 539 nm; PDI 0.49) and released nearly 90% of the entrapped drug. Second, the lipid film was hydrated with an aqueous formulation of BI-2536 (passive loading). Hydration of the lipid film, followed by extrusion and dialyses, led to stable liposomes. However, the encapsulation efficiency was <10%, 20-fold less than achievable with the modified cyclodextrins described herein.
# [7] = direct entrapment in lipid bilayer, after extrusion
# [8] = direct entrapment in lipid bilayer, after overnight dialysis against PBS
compound,measurement,setting,value
CC(=O)c1cc2cc3c4c(c2oc1=O)CCCN4CCC3 [coumarin 334],persistence in blood and tumor,[1],persisted in the blood and tumor
same,tissue clearance,[1],cleared from most of the tissues examined
CCOC(=O)c1cc2cc3c4c(c2oc1=O)CCCN4CCC3 [coumarin 314],loading efficiency when encapsulated in unionizable native β-cyclodextrin,[2]; citrate liposomes,only marginally improved the loading efficiency
same,loading into liposomes in the absence of cyclodextrins,"[2]; citrate liposomes, identical conditions",poorly incorporated into liposomes
O=C(NOC[C@H](O)CO)c1ccc(F)c(F)c1Nc1ccc(I)cc1F [PD-0325901],slowing of tumor growth,RKO xenografts,~5%
same,toxicity in clinical trials,[3],retinal vein occlusion (RVO)
same,increase in solubility after encapsulation into cyclodextrins,physchem,~40 fold
same,solubility,physchem,100 µg/mL
"6′,6′,6′,6′,6′,6′,6′-heptakis-succinyl-β-cyclodextrin [IX]","liposome loading of PD-0325901 among cyclodextrins VI, VII, VIII, IX",[2]; acidic or basic liposomes,best liposome loading
CC[C@@H]1C(=O)N(C)c2cnc(Nc3ccc(C(=O)NC4CCN(C)CC4)cc3OC)nc2N1C1CCCC1 [BI-2536],tumor regressions,"HCT116 xenografts; mouse, in vivo",not with free drug
same,slowing of tumor growth,HCT116 xenografts; two i.v. doses of 100 mg/kg,~30%
same,acute toxicity / survival,[4],"somewhat lethargic immediately after drug administration, but survived"
same,toxicity in clinical trials,[3],unacceptable toxicity (grade 4 neutropenia) at sub-therapeutic doses
same,MTD,in vivo,100 mg/kg
same,tumor regressions,[5],not with free drug
same,PDI,[6]; [7],0.09
same,average particle size (Zavg),[6]; [7],126 nm
same,PDI,[6]; [8],0.49
same,average particle size (Zavg),[6]; [8],539 nm
same,entrapped drug released,"[6]; direct entrapment in lipid bilayer, overnight dialysis against PBS",~90%
same,encapsulation efficiency relative to modified cyclodextrins (fold less),[6]; passive loading,20 fold
same,encapsulation efficiency,[6]; passive loading: lipid film hydrated with aqueous BI-2536,< 10%
same,effect of aminated cyclodextrins V and VI on aqueous solubility,physchem,dramatically improved
same,solubility,physchem,500 µg/mL
